# Laboratory results as given in paper PMC6832651, “Design, Synthesis and Investigation of the Potential Anti-Inflammatory Activity of 7-O-Amide Hesperetin Derivatives” (Molecules, 2019).
# Read-outs that look alike come from different tables or passages of the source.
# Columns and labels:
# [1] = set-up: method as in PMID 19629709; conditions: cited from earlier work
# [2] = set-up: method as in PMID 17047689; conditions: cited from earlier work
# RAW264.7 cells = test: MTT cell viability / cytotoxicity assay; assay type: cell-based, mouse; conditions: concentrations up to 100 μM, MTT (Figure 1)
# Experimental: Compounds 4a–4l, 5a–5b, 6a–6f, 7a–7c were assessed for toxicity against RAW264.7 cell lines using the 3-(4,5-dimethylthiazol-2-yl)-2,5-diphenyltetrazolium bromide (MTT) assay. After 40 μM treatment, the cell viability of all of the hesperetin derivatives was more than 90%. It was thus shown that the anti-inflammatory activities of hesperetin derivatives were not due to their cytotoxicity. In subsequent anti-inflammation studies, the highest concentration of hesperetin derivatives was set below 40 µM.
# Cytotoxicity and cell viability was evaluated by a MTT (Sigma, Shanghai, China) assay using a method similar to the one described above. Cells were inoculated at a density of 7.0 × 10^3 cells/well into 96-well plate and cultured at 37 °C for 12 h. […] After that, MTT dissolved in phosphate buffered saline (PBS) and was added to the culture medium to reach a final concentration of 0.5 mg/mL and incubated for another 4 h. The media was removed and 200 μL of DMSO was added and incubated for 30 min. Finally, the cell viability (%) was calculated based on the absorbance measured at the wavelength of 490 nm and measured using a microplate reader (Synergy HTX, Biotek, Winowski, VT, USA). The cell viability were calculated by GraphPad Prism 6 (GraphPad, San Diego, CA, USA).
# NF-κB signal pathway = test: Western blotting of NF-κB signal pathway in LPS-induced RAW264.7 cells; assay type: cell-based, mouse
# Text: Stimulation with LPS leads to the activation of nuclear factor-kappa B (NF-κB), which is a well-known transcription factor that positively regulates inflammation. When NF-κB activation is stimulated by LPS, inhibitor of NF-κB (IκB) protein phosphorylated and degraded frees NF-κB p65 subunit from sequestration, allowing it to translocate to the nucleus, bind to target promoters, and turn on the transcriptions of inflammation genes including TNF-α and IL-6. Therefore, Western blotting was used to examine the effects of compound 4d on LPS induced transcriptional activity of NF-κB in RAW264.7 cells.
# After the treatment with LPS ([…]) in the presence different concentration gradient or absence of compounds, removed culture supernatants, and cells were collected and lysed with RIPA lysis buffer (Beyotime, Shanghai, China) and phosphatase inhibitors (Beibokit, Bestbio, Shanghai, China). After centrifugation (4 °C, 30 min, 12,000 rpm, Beckman Coulter, Inc., Fullerton, CA, USA), the total protein concentration was determined using BCA Protein Assay Kit (Beyotime, Shanghai, China). Lysates containing […] of total proteins were fractionated on SDS polyacrylamide gel and transferred to a polyvinylidene difluoride membranes (PVDF) (Merck Millipore, Tullagreen Carrigtwohill, Ireland). Membranes were blocked with 5% skim milk or 3% BSA (Albumin Bovine V, Sigma) in TBST and incubated at 4 °C overnight with their respective primary antibody: β-actin (1:1000 dilution; Abcam, Cambridge, MA, USA), iNOS (1:1000 dilution; Abcam, Cambridge, MA, USA), COX-2 (1:1000 dilution; CST, Danvers, MA, USA ), NF-κB (1:1000 dilution; CST, Danvers, MA, USA). After washing three times with TBST, membranes were incubated with secondary antibody for 1 h in room temperature on the shaker. Protein bands were visualized by the ultra-sensitive enhanced chemiluminescent (ECL) substrate (ECL-plus, Thermo Scientific, Rockford, IL, USA), after washing three times with TBST [34].
# [3] = test system: LPS-induced NO production in RAW264.7 cells; test: Inhibition of LPS-induced NO production (Griess reagent); assay type: cell-based; conditions: Mus musculus, 10 μM compound, 1 h pretreatment, then LPS (1 μg/mL) 24 h, mean ± SD (n = 3)
# IL-1β = IL-1β level in medium of LPS-induced RAW264.7 cells (ELISA); assay type: cell-based, mouse; conditions: 10 μM compound (Figure 2A-C)
# Text: (§1) When inflammation occurs, LPS-activated macrophages produce a variety of inflammatory cytokines, including TNF-α, interleukins (ILs), and nitric oxide (NO), which show a host shielding effect and also accelerate the occurrence of the inflammatory response during inflammatory situations. To evaluate the anti-inflammatory activity of hesperetin derivatives, the levels of TNF-α, IL-6 and IL-1β in the medium of LPS-induced macrophage cells were detected by enzyme linked immunosorbent assay (ELISA). […] Later, we will select one of them as lead compound and modify the structure at the 3’-OH, 5-OH and 4-carbonyl positions. […] Compounds 4d (MW = 401) and 4k (MW = 427) have similar structures and should have the same mechanism. Therefore, compound 4d with lower molecular weight was selected to further explore the mechanism(s) of the anti-inflammatory effect.
# (§2) RAW264.7 cells (2 × 10^5 cells/well) were cultured in 24-well plate and pretreated with 10 μM of compounds for 1 h. And then stimulated with LPS, […], for 24 h. The cell culture supernatant were collected and the levels of TNF-α, IL-6 and IL-1β were determined using the ELISA kit (Elabscience, Wuhan, China). The optical density (OD) was measured at 540 nm. The results were analyzed using Origin Pro 8 (OriginLab, Northampton, MA, USA).
# IL-6 = IL-6 level in medium of LPS-induced RAW264.7 cells (ELISA); assay type: cell-based, mouse; conditions: 10 μM compound (Figure 2A-C)
# Text: as §1, §2
# TNF-α = TNF-α level in medium of LPS-induced RAW264.7 cells (ELISA); assay type: cell-based, mouse; conditions: 10 μM compound (Figure 2A-C)
# Text: as §1, §2
# iNOS = test: Western blotting of iNOS expression in LPS-induced RAW264.7 cells; assay type: cell-based, mouse; conditions: LPS 24 h, compound 5, 10, 20 μM (Figure 3)
# Experimental: (§3) In the process of inflammation, inducible nitric oxide synthase enzymes (iNOS) are induced to overexpression in inflammatory cells when exposed to pro-inflammatory cytokines, which further leads to excessive production of NO. The inhibition of NO production by compound 4d may be correlated with its suppressive effect on LPS-induced iNOS. Thus, the inhibitory effects of compound 4d on LPS-mediated expressions of iNOS were analyzed by western blotting. Nitric oxide synthase (iNOS) protein levels were analyzed after exposure to LPS for 24 h in the presence or absence of compound 4d (5, 10, 20 μM). […] Cyclooxygenase-2 (COX-2) is an important indicator of anti-inflammatory inhibitors, maintaining a low level in normal tissues. […] Bay 11-7082 (5 μM) used as a positive control.
# (§4) After the treatment with LPS ([…]) in the presence different concentration gradient or absence of compounds, removed culture supernatants, and cells were collected and lysed with RIPA lysis buffer (Beyotime, Shanghai, China) and phosphatase inhibitors (Beibokit, Bestbio, Shanghai, China). After centrifugation (4 °C, 30 min, 12,000 rpm, Beckman Coulter, Inc., Fullerton, CA, USA), the total protein concentration was determined using BCA Protein Assay Kit (Beyotime, Shanghai, China). […]
# COX-2 = test: Western blotting of COX-2 expression in LPS-induced RAW264.7 cells; assay type: cell-based, mouse; conditions: compound 5, 10, 20 μM (Figure 3)
# Experimental: as §3, §4
# [4] = test system: LPS-induced NO production in RAW264.7 cells; test: Inhibition of LPS-induced NO production (Griess reagent); assay type: cell-based, mouse
# Experimental: NO is an important inflammatory mediator and is overproduced and secreted out of mouse macrophages in response to bacterial lipopolysaccharide. To evaluate the anti-inflammatory activity of hesperetin derivatives, the secretion level of NO was detected in the medium of RAW264.7 cells after LPS stimulated with Griess reagent. Before the cells were treated with LPS (1 μg/mL) for 24 h, pretreatment with the compounds for 1 hour. […] All hesperetin derivatives could decrease the release of NO induced by LPS. […] While extended the length of the amide side chain and the inhibitory activities increased (4d > 4c > 4a; 4e > 4b). […] On the other hand, the cavity was medium-sized, large enough to accommodate cyclopentyl and propyl groups, but not enough to accommodate cyclohexyl and butyl ones (4a < 4b < 4d > 4f; 4k > 4l).
# Nitrite levels were determined using the Griess method for NO has a short half-life and is oxidized to stable nitrite. RAW 264.7 cells were plated at a density of 2 × 10^5 per well in a 24-well culture plate and incubated in a 37 °C humidified incubator (5% CO2). After overnight Cultured, discarded the supernatant, added pre-configured compounds of different concentrations to the 24-well plate, and added the same one-thousandth of the DMSO solvent as the control to the experimental group for 1 h. Then LPS was added to experimental and model groups at a concentration of […] for 24 h compared to vehicle control. Following treatment, media was collected and centrifuged at 2000 rpm for 5 min to remove cellular debris. The medium from treated cells was removed and placed into a 96-well plate (50 µL per well) and was measured in culture supernatant using Griess reagent at 540 nm. The IC50 values of compounds were calculated by SPSS23.
Structure (SMILES),elimination half-life (t1/2) [1],elimination half-life (t1/2) [2],cytotoxicity (RAW264.7 cells),melting point,phosphorylation of IκBα (NF-κB signal pathway; LPS-induced RAW264.7 cells (Figure 4)),"protein expressions of NF-κB and IκBα (NF-κB signal pathway; LPS-induced RAW264.7 cells, compared with the LPS induced group (Figure 4))","LPS-induced NF-κB p65 nuclear translocation (NF-κB signal pathway; RAW264.7 cells, pretreatment 5, 10, 20 µM)",inhibition at 10 µM [3],inhibitory effect on IL-1β production (IL-1β),inhibitory effect on IL-6 production (IL-6),inhibitory effect on TNF-α production (TNF-α),expression level of iNOS (iNOS),expression level of COX-2 (COX-2),"LPS-induced NO release ([4]; LPS-stimulated, result in words)","IC50 ([4]; Mus musculus, 1 h pretreatment, then LPS 24 h, mean ± SD (n = 3))"
COc1ccc([C@@H]2CC(=O)c3c(O)cc(O)cc3O2)cc1O [hesperetin],3.12 h,1.78 h,–,–,–,–,–,–,–,–,–,–,–,–,–
"CCCNC(=O)COc1cc(O)c2c(c1)O[C@H](c1ccc(OC)c(O)c1)CC2=O [Compound 4d, 7-O-(2-(Propylamino)-2-oxoethyl)hesperetin]",–,–,no significant cytotoxicity,135.5 to 137.7 °C,markedly decreased,down-regulated,concentration-dependently reversed,38.2 ± 1.13%,greater inhibitory effects than indomethacin (Ind) and celecoxib (Cel),greater inhibitory effects than indomethacin (Ind) and celecoxib (Cel),greater inhibitory effects than indomethacin (Ind) and celecoxib (Cel),significantly decreased the expression level of iNOS induced by LPS in a dose-dependent manner,capable of reducing the expression level of COX-2 in a concentration-dependent way,significantly alleviated the increase of LPS-induced NO release,19.3 ± 0.47 µM
